# Assay results reported in patent EP1203771A1, “REMEDIES OR PREVENTIVES FOR FREQUENT URINATION OR URINARY INCONTINENCE” (TORAY INDUSTRIES, INC., priority 1999, dated 2001).
# Where a name gives a salt, the structure may show the parent alone.
# Tested on: Rhythmic Bladder Contraction of Rats
# Assay: Effect on rhythmic bladder contraction of rats (urethane-anesthetized, saline infusion into bladder, intravesical pressure)
# Assay type: in vivo
# Conditions: anesthetized female SD rats
# Description: Effect on Rhythmic Bladder Contraction of Rats
# Female SD rats were anesthetized with an intraperitoneal injection of urethane (1.0 g/kg). A polyethylene tube was inserted from urethral opening to the bladder and the tube was fixed by ligating. Physiological saline was appropriately infused via the tube (rate of infusion: about 0.2 ml/min; maximum dose: about 1.5 ml/rat) to induce rhythmic contraction of bladder. The rhythmic contraction of bladder was monitored by measuring the intravesical pressure through the polyethylene tube inserted into the bladder. After confirming that stable rhythmic contraction occurred at least 10 times, each test compound was intravenously administered at a doseof 1 ml/kg. If the intravesical pressure became, within 10 minutes from the administration of the test compound, not more than 50% of the intravesical pressure at the time point immediately after the administration of the test compound, it was judged that […], and the time period until the intravesical pressure again became not less than 50% was defined as the rhythmic bladder contraction-inhibiting time. As the solvent for administration of the test compounds, 5% xylitol was used for test Compounds 1, 2, 3, 4, 5, 11, 12, 21, 23 and 24; physiological saline was used for test Compounds 6, 9, 10, 13, 14, 15, 16, 17, 18, 19, 20 and 22; 10% ethanol solution was used for test Compound 7; and 10% DMSO solution was used for test Compound 8. The solvents 5% xylitol solution, 10% ethanol solution and 10% DMSO solution, each of which is said to somewhat influence on the rhythmic bladder contraction-inhibiting time, were also tested at the dose of 1 ml/kg. […]
# [1] = 1 mg/kg intravenously, solvent physiological saline
# [2] = 10 mg/kg intravenously, solvent 5% xylitol
# [3] = 30 mg/kg intravenously, solvent 5% xylitol
# [4] = 3 mg/kg intravenously, solvent physiological saline
# [5] = 10 mg/kg intravenously, solvent physiological saline
smiles,measurement,setting,value
"COc1ccc2c3c1O[C@H]1c4nc5ccccc5cc4C[C@@]4(O)[C@@H](C2)N(C)CC[C@]314 [Compound 19, 17-methyl-6,7-dehydro-4,5α-epoxy-3-methoxy-14β-hydroxy-6,7,2',3'-quinolinomorphinan tartaric acid salt]",Mean Rhythmic Bladder Contraction-inhibiting Time,[1],7.7 min
"Cc1c2c(nc3ccccc13)[C@@H]1Oc3c(O)ccc4c3[C@@]13CCN(C)[C@H](C4)[C@]3(O)C2 [Compound 4, 17-methyl-6,7-dehydro-4,5α-epoxy-3,14β-dihydroxy-6,7,2',3'-(4'-methylquinolino)morphinan methanesulfonic acid salt]",Mean Rhythmic Bladder Contraction-inhibiting Time,[2],13.9 min
"Oc1ccc2c3c1O[C@H]1c4nc5ccccc5cc4C[C@@]4(O)[C@@H](C2)N(CCc2ccccc2)CC[C@]314 [Compound 7, 17-phenethyl-6,7-dehydro-4,5 α-epoxy-3,14β-dihydroxy-6,7,2',3'-quinolinomorphinan methanesulfonic acid salt]",Mean Rhythmic Bladder Contraction-inhibiting Time,"5 mg/kg intravenously, solvent 10% ethanol solution",17.1 min
"Oc1ccc2c3c1O[C@H]1c4nc5ccccc5cc4C[C@@]4(O)[C@@H](C2)N(CCc2cccs2)CC[C@]314 [Compound 8, 17-(2-thienyl)ethyl-6,7-dehydro-4,5α-epoxy-3,14β-dihydroxy-6,7,2',3'-quinolinomorphinan methanesulfonic acid salt]",Mean Rhythmic Bladder Contraction-inhibiting Time,"10 mg/kg intravenously, solvent 10% DMSO solution",19.5 min
"CN1CC[C@]23c4c5cccc4O[C@H]2c2nc4ccccc4cc2C[C@@]3(O)[C@H]1C5 [Compound 20, 17-methyl-6,7-dehydro-4,5α-epoxy-14β-hydroxy-6,7,2',3'-quinolinomorphinan tartaric acid salt]",Mean Rhythmic Bladder Contraction-inhibiting Time,[1],11.1 min
"O=C1Nc2c3c(nc4cccc1c24)[C@@H]1Oc2c(O)ccc4c2[C@@]12CCN(CC1CC1)[C@H](C4)[C@]2(O)C3 [Compound 1, 17-cyclopropylmethyl-6,7-dehydro-4,5α-epoxy-3,14β-dihydroxy-6,7,2',3'-[4',5'-[imino(oxomethano)]quinolino]morphinan hydrochloric acid salt]",Mean Rhythmic Bladder Contraction-inhibiting Time,[3],6.2 min
"Oc1ccc2c3c1O[C@H]1c4nc5ccccc5cc4C[C@@]4(O)[C@@H](C2)N(CCc2ccc(F)cc2)CC[C@]314 [Compound 24, 17-(4-fluorophenyl)ethyl-6,7-dehydro-4,5α-epoxy-3,14β-dihydroxy-6,7,2',3'-quinolinomorphinan methanesulfonic acid salt]",Mean Rhythmic Bladder Contraction-inhibiting Time,[2],2.3 min
"CC(=O)Oc1ccc2c3c1O[C@H]1c4nc5ccccc5cc4C[C@@]4(OC(C)=O)[C@@H](C2)N(C)CC[C@]314 [Compound 16, 17-methyl-6,7-dehydro-4,5α-epoxy-3,14β-diacetoxy-6,7,2',3'-quinolinomorphinan tartaric acid salt]",Mean Rhythmic Bladder Contraction-inhibiting Time,"0.3 mg/kg intravenously, solvent physiological saline",15.0 min
"Oc1ccc2c3c1O[C@H]1c4nc5ccccc5cc4C[C@@]4(O)[C@@H](C2)N(CC2CC2)CC[C@]314 [Compound 21, 17-cyclopropylmethyl-6,7-dehydro-4,5α-epoxy-3,14β-dihydroxy-6,7,2',3'-quinolinomorphinan methanesulfonic acid salt]",Mean Rhythmic Bladder Contraction-inhibiting Time,[2],10.0 min
"Cc1cccc2cc3c(nc12)[C@@H]1Oc2c(O)ccc4c2[C@@]12CCN(C)[C@H](C4)[C@]2(O)C3 [Compound 13, 17-methyl-6,7-dehydro-4,5α-epoxy-3,14β-dihydroxy-6,7,2',3'-(8'-methylquinolino)morphinan methanesulfonic acid salt]",Mean Rhythmic Bladder Contraction-inhibiting Time,[1],6.5 min
"CN1CC[C@]23c4c5ccc(O)c4O[C@H]2c2nc4ccccc4c(N)c2C[C@@]3(O)[C@H]1C5 [Compound 2, 17-methyl-6,7-dehydro-4,5α-epoxy-3,14β-dihydroxy-6,7,2',3'-(4'-aminoquinolino)morphinan methanesulfonic acid salt]",Mean Rhythmic Bladder Contraction-inhibiting Time,[2],4.5 min
"CC(=O)O[C@@]12Cc3cc4ccccc4nc3[C@@H]3Oc4c(O)ccc5c4[C@@]31CCN(C)[C@@H]2C5 [Compound 17, 17-methyl-6,7-dehydro-4,5α-epoxy-3-hydroxy-14β-acetoxy-6,7,2',3'-quinolinomorphinan tartaric acid salt]",Mean Rhythmic Bladder Contraction-inhibiting Time,[1],7.4 min
"CO[C@@]12Cc3cc4ccccc4nc3[C@@H]3Oc4c(O)ccc5c4[C@@]31CCN(C)[C@@H]2C5 [Compound 9, 17-methyl-6,7-dehydro-4,5 α-epoxy-3-hydroxy-14 β -methoxy-6,7,2',3'-quinolinomorphinan methanesulfonic acid salt]",Mean Rhythmic Bladder Contraction-inhibiting Time,[1],7.3 min
"Cc1ccc2nc3c(cc2c1)C[C@@]1(O)[C@H]2Cc4ccc(O)c5c4[C@@]1(CCN2C)[C@H]3O5 [Compound 14, 17-methyl-6,7-dehydro-4,5α-epoxy-3,14β-dihydroxy-6,7,2',3'-(6'-methylquinolino)morphinan methanesulfonic acid salt]",Mean Rhythmic Bladder Contraction-inhibiting Time,[4],12.3 min
"CN1CC[C@]23c4c5ccc(O)c4O[C@H]2c2nc4c(Cl)cccc4cc2C[C@@]3(O)[C@H]1C5 [Compound 10, 17-methyl-6,7-dehydro-4,5α-epoxy-3,14β-dihydroxy-6,7,2',3'-(8'-chloroquinolino)morphinan methanesulfonic acid salt]",Mean Rhythmic Bladder Contraction-inhibiting Time,[5],7.4 min
"C=CCN1CC[C@]23c4c5ccc(O)c4O[C@H]2c2nc4ccccc4cc2C[C@@]3(O)[C@H]1C5 [Compound 22, 17-allyl-6,7-dehydro-4,5α-epoxy-3,14β-dihydroxy-6,7,2',3'-quinolinomorphinan methanesulfonic acid salt]",Mean Rhythmic Bladder Contraction-inhibiting Time,[5],1.4 min
"CN1CC[C@]23c4c5ccc(O)c4O[C@H]2c2nc4ccccc4cc2C[C@@]3(O)[C@H]1C5 [Compound 6, 17-methyl-6,7-dehydro-4,5α-epoxy-3,14β-dihydroxy-6,7,2',3'-quinolinomorphinane methanesulfonic acid salt]",Mean Rhythmic Bladder Contraction-inhibiting Time,[4],24.1 min
"CN1CC[C@]23c4c5ccc(O)c4O[C@H]2c2nc4ccc(Cl)cc4cc2C[C@@]3(O)[C@H]1C5 [Compound 11, 17-methyl-6,7-dehydro-4,5α-epoxy-3,14β-dihydroxy-6,7,2',3'-(6'-chloroquinolino)morphinan methanesulfonic acid salt]",Mean Rhythmic Bladder Contraction-inhibiting Time,[2],12.4 min
"Oc1ccc2c3c1O[C@H]1c4nc5c(cc4C[C@@]4(O)[C@@H](C2)N(CC2CC2)CC[C@]314)cc1c2c(cccc25)CC1 [Compound 3, 17-cyclopropylmethyl-6,7-dehydro-4,5α-epoxy-3,14β-dihydroxy-6,7,2',3'-(6',6""-ethano-7',8'-benzoquinolino)morphinan methanesulfonic acid salt]",Mean Rhythmic Bladder Contraction-inhibiting Time,"20 mg/kg intravenously, solvent 5% xylitol",5.0 min
"CN1CC[C@]23c4c5ccc(O)c4O[C@H]2c2nc4ccccc4c(O)c2C[C@@]3(O)[C@H]1C5 [Compound 5, 17-methyl-6,7-dehydro-4,5α-epoxy-3,14β-dihydroxy-6,7,2',3'-(4'-hydroxyquinolino)morphinan methanesulfonic acid salt]",Mean Rhythmic Bladder Contraction-inhibiting Time,[3],5.7 min
"CC(=O)Oc1ccc2c3c1O[C@H]1c4nc5ccccc5cc4C[C@@]4(O)[C@@H](C2)N(C)CC[C@]314 [Compound 18, 17-methyl-6,7-dehydro-4,5α-epoxy-3-acetoxy-14β-hydroxy-6,7,2',3'-quinolinomorphinane tartaric acid salt]",Mean Rhythmic Bladder Contraction-inhibiting Time,[1],6.6 min
"CN1CC[C@]23c4c5ccc(O)c4O[C@H]2c2nc4c(F)cccc4cc2C[C@@]3(O)[C@H]1C5 [Compound 15, 17-methyl-6,7-dehydro-4,5α-epoxy-3,14β-dihydroxy-6,7,2',3'-(8'-fluoroquinolino)morphinan tartaric acid salt]",Mean Rhythmic Bladder Contraction-inhibiting Time,[1],10.7 min
"CN1CC[C@]23c4c5ccc(O)c4O[C@H]2c2nc4cccc(Cl)c4cc2C[C@@]3(O)[C@H]1C5 [Compound 12, 17-methyl-6,7-dehydro-4,5α-epoxy-3,14β-dihydroxy-6,7,2',3'-(5'-chloroquinolino)morphinan tartaric acid salt]",Mean Rhythmic Bladder Contraction-inhibiting Time,"0.3 mg/kg intravenously, solvent 5% xylitol",14.6 min
"Cc1ccc(CCN2CC[C@]34c5c6ccc(O)c5O[C@H]3c3nc5ccccc5cc3C[C@@]4(O)[C@H]2C6)cc1 [Compound 23, 17-(4-methylphenyl)ethyl-6,7-dehydro-4,5α-epoxy-3,14β-dihydroxy-6,7,2',3'-quinolinomorphinan methanesulfonic acid salt]",Mean Rhythmic Bladder Contraction-inhibiting Time,[2],9.2 min
